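How tested: cells in 96-well plates exposed to compound for 48 hours at five concentrations. Here, GI50 denotes the concentration required for 50% inhibition of growth. The concentration for full growth arrest is given as TGI.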

Among the test systems are IGROV1 ovarian; KM12 colon; ACHN renal; HCT-15 colon; T-47D breast; RXF 393 renal; SF-539 CNS; K-562 leukemia; HOP-62 NSCLC; MOLT-4 leukemia.
Holding throughout (assay): DTP human tumour cell line panel, 48 h

As for `O=C(N/N=C(/COc1ccccc1)N=Cc1cccnc1)c1ccncc1`, the TGI in the test with IGROV1 ovarian, with KM12 colon, in the test on ACHN renal, in the test with HCT-15 colon, in the test with T-47D breast and with RXF 393 renal was greater than 100 µM each time. Also, the TGI in the test on SF-539 CNS, in the test with K-562 leukemia, in the test on HOP-62 NSCLC and with MOLT-4 leukemia was greater than 100 µM in each case.
For the molecule `CCOC(=O)/C=C(/C)Nc1nc2c(c(C(=O)OC)c1C#N)CCCC2`, the total growth inhibition concentration (TGI) with IGROV1 ovarian, in the test on KM12 colon, in the test on ACHN renal, in the test on HCT-15 colon, with T-47D breast and in the test with RXF 393 renal was greater than 100 µM in each case. Further, the concentration for total growth inhibition (TGI) in the test with K-562 leukemia, with HOP-62 NSCLC and in the test on MOLT-4 leukemia was greater than 100 µM in each case.
Turning to `Cn1cc(-c2csc(-c3cn(C)c4ccccc34)n2)c2ccccc21`, the TGI was greater than 100 µM in the test with IGROV1 ovarian; greater than 100 µM with KM12 colon; greater than 100 µM in the test with ACHN renal; greater than 100 µM in the test with HCT-15 colon; 89.6 µM with T-47D breast; 54.4 µM with RXF 393 renal. Moreover, the total growth inhibition concentration (TGI) in the test with K-562 leukemia is 31.9 µM; in the test on HOP-62 NSCLC, 45.7 µM; in the test with MOLT-4 leukemia, 42 µM.
In the case of `C[C@@H]1CC[C@@]2(OC1)O[C@H]1C[C@H]3[C@@H]4CC[C@H]5C[C@@H](OC6OC(CO)C(OC7OC(CO)C(O)C(OC8OCC(O)C(O)C8O)C7OC7OC(CO)C(O)C(O)C7O)C(O)C6O)[C@H](O)C[C@]5(C)[C@H]4CC[C@]3(C)[C@H]1[C@@H]2C` (stereo partly specified), the total growth inhibition concentration (TGI) was 8.31 µM in the test with IGROV1 ovarian; 23.6 µM in the test on KM12 colon; 8.87 µM with ACHN renal; greater than 33.9 µM in the test on HCT-15 colon; 28 µM in the test with T-47D breast; 27.1 µM in the test with RXF 393 renal. Besides, the total growth inhibition concentration (TGI) in the test with SF-539 CNS was 12.8 µM; with K-562 leukemia it was greater than 100 µM; in the test with HOP-62 NSCLC it was 2.94 µM; with MOLT-4 leukemia, 31.1 µM.
In the case of `O=c1oc2c(Cl)cc(Cl)cc2cc1C1=CSC2=NCCN12`, the TGI in the test with IGROV1 ovarian, in the test on KM12 colon, in the test with ACHN renal, with HCT-15 colon, in the test with T-47D breast and with RXF 393 renal was greater than 100 µM each time. Moreover, the concentration for total growth inhibition (TGI) with SF-539 CNS, in the test on K-562 leukemia, in the test with HOP-62 NSCLC and in the test on MOLT-4 leukemia was greater than 100 µM each time.
For `NS(=O)(=O)c1ccc(/C=C/c2ccc(O)cc2)cc1`, the GI50 with IGROV1 ovarian was 20.2 µM; with KM12 colon, 11.1 µM; in the test on ACHN renal, 2.28 µM; in the test on HCT-15 colon, 24.6 µM; with SF-539 CNS, 7.4 µM; in the test with K-562 leukemia, 24.9 µM. Further, the GI50 in the test on MOLT-4 leukemia was 22.6 µM. Further, the concentration for total growth inhibition (TGI) was 84.9 µM with IGROV1 ovarian; 30 µM in the test on KM12 colon; 7.75 µM in the test with ACHN renal; greater than 100 µM with HCT-15 colon; 71.6 µM in the test with T-47D breast; greater than 100 µM in the test with RXF 393 renal. Besides, the total growth inhibition concentration (TGI) is 37.7 µM with SF-539 CNS, greater than 100 µM with K-562 leukemia, 82.9 µM in the test on HOP-62 NSCLC and greater than 100 µM with MOLT-4 leukemia.
As to `O=C(c1cc2c(c3ccccc13)NC1(CCCCC1)N=C2C(F)(F)F)C(F)(F)F`, the total growth inhibition concentration (TGI) in the test with IGROV1 ovarian worked out at 17.3 µM; in the test with KM12 colon, 14.2 µM; with ACHN renal, 13.8 µM; in the test with HCT-15 colon it was 16.7 µM; in the test on T-47D breast, 13.5 µM; in the test on RXF 393 renal, 12.7 µM. The concentration for total growth inhibition (TGI) with SF-539 CNS is 5.59 µM; in the test on K-562 leukemia, 16.8 µM; in the test with HOP-62 NSCLC it was greater than 100 µM; in the test with MOLT-4 leukemia, 14.5 µM.
Consider `O=C(OCCNC(=O)N1CC1)OCCNC(=O)N1CC1`, for which the TGI in the test on IGROV1 ovarian, with KM12 colon, in the test on ACHN renal, in the test with HCT-15 colon, in the test with T-47D breast and in the test on RXF 393 renal was greater than 10 µM throughout. For the same molecule, the total growth inhibition concentration (TGI) in the test with SF-539 CNS, in the test with K-562 leukemia, in the test with HOP-62 NSCLC and in the test with MOLT-4 leukemia was greater than 10 µM each time.
As to `CCO/C=N/C1=C(C#N)SC2=N/C(=C\c3ccccc3)C(=O)N21`, the TGI in the test on IGROV1 ovarian, in the test on KM12 colon, with ACHN renal, in the test on HCT-15 colon, with T-47D breast and in the test with RXF 393 renal was greater than 100 µM each time. Further, the total growth inhibition concentration (TGI) in the test on SF-539 CNS was greater than 100 µM; in the test on K-562 leukemia it was greater than 80.4 µM; with HOP-62 NSCLC, greater than 100 µM; with MOLT-4 leukemia, greater than 100 µM.
For `Cc1ccc(Nc2nc3c(=O)n(C)c(=O)n(C)c3nc2Nc2ccc(C)cc2)cc1`, the TGI in the test with IGROV1 ovarian stood at 29.8 µM; with KM12 colon, 34.5 µM; in the test on ACHN renal, 11.8 µM; with HCT-15 colon it was 11.8 µM; in the test on T-47D breast it was 30.3 µM; in the test on RXF 393 renal it was 23.2 µM. Further, the total growth inhibition concentration (TGI) in the test with SF-539 CNS is 26.7 µM; with K-562 leukemia, greater than 100 µM; in the test with HOP-62 NSCLC, 40.9 µM; in the test on MOLT-4 leukemia, greater than 100 µM.
Consider `O=c1oc2cc(O)ccc2c(O)c1Cc1c(O)c2ccc(O)cc2oc1=O`, for which the TGI with IGROV1 ovarian, in the test with HCT-15 colon, in the test with T-47D breast, with RXF 393 renal, in the test on SF-539 CNS and in the test on K-562 leukemia was greater than 100 µM each time. The TGI with HOP-62 NSCLC and in the test on MOLT-4 leukemia was greater than 100 µM each time.
As to `Cc1ccc(C(=O)N/N=C(\N=Nc2ccc(C(=O)O)cc2)c2ccc(N(CCC#N)CCC#N)cc2C)cc1`, the concentration for total growth inhibition (TGI) in the test on KM12 colon, in the test on ACHN renal, with HCT-15 colon, in the test with T-47D breast, in the test with RXF 393 renal and with SF-539 CNS was greater than 100 µM each time. In addition, the concentration for total growth inhibition (TGI) in the test with K-562 leukemia, in the test on HOP-62 NSCLC and in the test with MOLT-4 leukemia was greater than 100 µM throughout.
With `OC1CSc2nc3ccccc3n2C1` (stereo unspecified), the total growth inhibition concentration (TGI) in the test with IGROV1 ovarian, with KM12 colon, with ACHN renal, with HCT-15 colon, with T-47D breast and in the test with RXF 393 renal was greater than 100 µM each time. Moreover, the concentration for total growth inhibition (TGI) with SF-539 CNS, in the test with K-562 leukemia and with MOLT-4 leukemia was greater than 100 µM throughout.

Source of the values: PubChem BioAssay (NCI).
